Among the data in patent publication US8497307B2, “Aryl guanidine F1F0-ATPase inhibitors and related methods” (The Regents of the University of Michigan, priority 2008, dated 2013) are EC50 values, retold here.

The EC50 is the concentration that produces a half-maximal response. High values mean lower potency in that assay, low ones higher potency in that assay.

This assay concerns Ramos cells. The experiment in a line: Cytotoxicity in Ramos cells (cell death). Format: cell-based. On the procedure: The compounds listed in Table 7 were tested for cytotoxicity in Ramos cells. The assay was conducted as described in K. M. Johnson et al. Chemistry & Biology 2005, 12, 485-496.

For the compound `N#Cc1cccc(C(=O)N=C(Nc2ccc(C(F)(F)F)cc2)Nc2ccc3[nH]c(=O)oc3c2)c1` [Compound I-118], the EC50 was over 10 µM.

Compound `O=C(N=C(Nc1cccc(C2CC2)c1)Nc1ccc2oc(=O)[nH]c2c1)c1ccc(C(F)(F)F)cc1` [Compound I-135] returned an EC50 of over 10 µM.

As to `O=C(N=C(NCCc1c[nH]cn1)Nc1ccccc1C(F)(F)F)c1ccc(Cl)cc1` [III-2], the EC50 was over 10 µM.

In the case of `O=C(N=C(Nc1ccc(-c2ccccc2)cc1)Nc1ccc2[nH]c(=O)oc2c1)c1ccc(F)cc1` [Compound I-32], the EC50 is under 10 µM.

In turn, `CC(C)(C)c1cccc(NC(=NC(=O)c2ccc(C(F)(F)F)cc2)Nc2ccc3[nH]c(=O)oc3c2)c1` [Compound I-120] had an EC50 of under 10 µM.

For `O=C(N=C(Nc1ccc(-c2ccccc2)cc1)Nc1ccc2[nH]c(=O)[nH]c2c1)c1cccc(Cl)c1` [Compound I-15], the EC50 is over 10 µM.

Compound `O=C(N=C(Nc1ccc2[nH]c(=O)oc2c1)Nc1ccccc1C(F)(F)F)c1ccc(Cl)cc1` [Compound I-18] yielded an EC50 of under 10 µM.

As to `CC(C)(C)c1ccccc1NC(=NC(=O)c1cccc(Cl)c1)Nc1ccc2[nH]c(=O)oc2c1` [Compound I-23], the EC50 is under 10 µM.

Regarding `O=C(N=C(Nc1ccc2ccccc2c1)Nc1ccc2[nH]ncc2c1)c1ccc(Cl)cc1` [II-10], the EC50 was under 10 µM.

The compound `CC(C)(C)c1ccccc1NC(=NC(=O)c1ccc(C(F)(F)F)cc1F)Nc1ccc2[nH]c(=O)oc2c1` [Compound I-107] came in with an EC50 of under 10 µM.

Consider `CC(C)(C)c1ccccc1NC(=NC(=O)c1ccc(Cl)cc1)Nc1ccc2[nH]c(=O)oc2c1` [Compound I-22], for which the EC50 was under 10 µM.

`CC(C)(C)c1ccccc1NC(=NC(=O)c1ccc(C#N)cc1)Nc1ccc2[nH]c(=O)oc2c1` [Compound I-103] yielded an EC50 of under 10 µM.

With `O=C(N=C(Nc1ccc(-c2ccccc2)cc1)Nc1ccc2[nH]ncc2c1)c1ccc(Cl)cc1` [II-14], the EC50 was under 10 µM.

On to `O=C(N=C(Nc1cc(F)cc(Cl)c1)Nc1ccc2[nH]c(=O)oc2c1)c1ccc(C(F)(F)F)cc1` [Compound I-94], for which the EC50 is under 10 µM.

The compound `CC(C)(C)c1ccccc1NC(=NC(=O)c1cccc(Cl)c1)Nc1ccc2[nH]c(=O)[nH]c2c1` [Compound I-7] displayed an EC50 of under 10 µM.

Compound `O=C(N=C(Nc1ccc2ccccc2c1)Nc1ccc2[nH]c(=O)[nH]c2c1)c1ccc(Br)cc1` [Compound I-9] yielded an EC50 of over 10 µM.

`N#Cc1cccc(C(=O)N=C(Nc2ccc3[nH]c(=O)oc3c2)Nc2ccccc2C(F)(F)F)c1` [Compound I-101] showed an EC50 of over 10 µM.

The compound `O=C(N=C(Nc1ccc2ccccc2c1)Nc1ccc2[nH]c(=O)oc2c1)c1ccc(Cl)cc1` [Compound I-26] yielded an EC50 of under 10 µM.

With `CC(C)(C)c1ccccc1NC(=NC(=O)c1cccc(C#N)c1)Nc1ccc2[nH]c(=O)oc2c1` [Compound I-100], the EC50 is under 10 µM.

The compound `N#Cc1cccc(C(=O)N=C(Nc2cc(Cl)cc(Cl)c2)Nc2ccc3[nH]c(=O)oc3c2)c1` [Compound I-116] returned an EC50 of over 10 µM.

As for `CC(C)(C)c1ccccc1NC(=NC(=O)c1ccc(Cl)cc1)NCCc1c[nH]cn1` [III-5], the EC50 is under 10 µM.

As to `O=C(N=C(Nc1ccc(-c2ccccc2)cc1)Nc1ccc2[nH]c(=O)[nH]c2c1)c1ccc(F)cc1` [Compound I-16], the EC50 was over 10 µM.

Take `CC(C)(C)c1ccccc1NC(=NC(=O)c1ccc(F)cc1)Nc1ccc2[nH]ncc2c1` [II-8]: the EC50 is under 10 µM.

Turning to `CC(C)(C)c1ccccc1NC(=NC(=O)c1ccc(Cl)cc1)Nc1ccc2[nH]c(=O)[nH]c2c1` [Compound I-6], the EC50 was under 10 µM.

Regarding `CC(C)(C)c1ccc(NC(=NC(=O)c2ccc(C(F)(F)F)cc2)Nc2ccc3[nH]c(=O)oc3c2)cc1` [Compound I-128], the EC50 was under 10 µM.

`O=C(N=C(NCCc1c[nH]cn1)Nc1ccccc1C(F)(F)F)c1ccc(F)cc1` [III-3] gave an EC50 of over 10 µM.

For `CC(C)(C)c1ccccc1NC(=NC(=O)c1ccc(C(F)(F)F)cc1)Nc1ccc2oc(=O)[nH]c2c1` [Compound I-129], the EC50 is under 10 µM.

For the compound `O=C(N=C(Nc1ccc2ccccc2c1)Nc1ccc2[nH]c(=O)oc2c1)c1cccc(Cl)c1` [Compound I-27], the EC50 was under 10 µM.

Consider `CC(C)(C)c1ccccc1NC(=NC(=O)c1ccc(F)cc1)NCCc1c[nH]cn1` [III-7], for which the EC50 was over 10 µM.

As for `CC(C)(C)c1ccccc1NC(=NC(=O)c1ccc(C(F)(F)F)c(F)c1)Nc1ccc2oc(=O)[nH]c2c1` [Compound I-131], the EC50 was under 10 µM.

`N#Cc1cccc(C(=O)N=C(Nc2cccc(C3CC3)c2)Nc2ccc3[nH]c(=O)oc3c2)c1` [Compound I-110] registered an EC50 of under 10 µM.

In turn, `O=C(N=C(Nc1ccc(-c2ccccc2)cc1)Nc1ccc2[nH]ncc2c1)c1ccc(Br)cc1` [II-13] had an EC50 of under 10 µM.

As for `O=C(N=C(Nc1ccc2[nH]c(=O)[nH]c2c1)Nc1ccccc1C(F)(F)F)c1ccc(Br)cc1` [Compound I-1], the EC50 was over 10 µM.

Compound `O=C(N=C(Nc1ccc2[nH]c(=O)oc2c1)Nc1ccccc1C1CC1)c1ccc(C(F)(F)F)cc1` [Compound I-121] displayed an EC50 of under 10 µM.

`O=C(N=C(Nc1ccc2ccccc2c1)Nc1ccc2[nH]ncc2c1)c1cccc(Cl)c1` [II-11] yielded an EC50 of under 10 µM.

The compound `O=C(N=C(Nc1cccc(C(F)(F)F)c1)Nc1ccc2[nH]c(=O)oc2c1)c1ccc(Cl)cc1` [Compound I-89] yielded an EC50 of under 10 µM.

Consider `O=C(N=C(Nc1cccc(C(F)(F)F)c1)Nc1ccc2[nH]ncc2c1)c1ccc(Cl)cc1` [II-21], for which the EC50 is under 10 µM.

With `CC(C)(C)c1ccccc1NC(=NC(=O)c1ccc(Br)cc1)Nc1ccc2[nH]c(=O)[nH]c2c1` [Compound I-5], the EC50 was under 10 µM.

In the case of `O=C(N=C(Nc1ccc2[nH]c(=O)oc2c1)Nc1ccccc1C(F)(F)F)c1cccc(Cl)c1` [Compound I-19], the EC50 was under 10 µM.

`O=C(N=C(Nc1ccc2ccccc2c1)Nc1ccc2[nH]c(=O)[nH]c2c1)c1ccc(F)cc1` [Compound I-12] showed an EC50 of over 10 µM.

With `CC(C)(C)c1ccccc1NC(=NC(=O)c1ccc(C(F)(F)F)cc1F)Nc1ccc2oc(=O)[nH]c2c1` [Compound I-132], the concentration for a half-maximal effect (EC50) was over 10 µM.

Compound `O=C(N=C(Nc1ccc2[nH]c(=O)[nH]c2c1)Nc1ccccc1C(F)(F)F)c1ccc(F)cc1` [Compound I-4] came in with an EC50 of under 10 µM.

Compound `O=C(N=C(Nc1ccc2[nH]c(=O)oc2c1)Nc1ccccc1C(F)(F)F)c1ccc(Br)cc1` [Compound I-17] showed an EC50 of under 10 µM.

`CC(C)(C)c1ccccc1NC(=NC(=O)c1ccc(Br)cc1)NCCc1c[nH]cn1` [III-4] had an EC50 of under 10 µM.

`O=C(N=C(Nc1ccc(Cl)cc1)Nc1ccc2[nH]ncc2c1)c1ccc(C(F)(F)F)cc1` [II-19] gave an EC50 of under 10 µM.

`O=C(N=C(Nc1cccc(C(F)(F)F)c1)Nc1ccc2[nH]ncc2c1)c1ccc(C(F)(F)F)cc1` [II-17] came in with an EC50 of under 10 µM.

The compound `N#Cc1ccc(C(=O)N=C(Nc2ccc3[nH]c(=O)oc3c2)Nc2ccccc2C(F)(F)F)cc1` [Compound I-104] gave an EC50 of under 10 µM.

As to `O=C(N=C(Nc1ccc(-c2ccccc2)cc1)Nc1ccc2[nH]ncc2c1)c1ccc(F)cc1` [II-16], the EC50 is under 10 µM.

`O=C(N=C(Nc1ccc2[nH]ncc2c1)Nc1ccccc1C(F)(F)F)c1ccc(Br)cc1` [II-1] displayed an EC50 of under 10 µM.

For the compound `N#Cc1cccc(C(=O)N=C(Nc2cccc(C(F)(F)F)c2)Nc2ccc3[nH]c(=O)oc3c2)c1` [Compound I-102], the EC50 is under 10 µM.

`CC(C)(C)c1ccccc1NC(=NC(=O)c1ccc(F)cc1)Nc1ccc2[nH]c(=O)[nH]c2c1` [Compound I-8] had an EC50 of under 10 µM.

Take `CC(C)(C)c1cccc(NC(=NC(=O)c2cccc(C#N)c2)Nc2ccc3[nH]c(=O)oc3c2)c1` [Compound I-111]: the EC50 was under 10 µM.

`O=C(N=C(NCCc1c[nH]cn1)Nc1ccc2ccccc2c1)c1ccc(Cl)cc1` [III-9] registered an EC50 of over 10 µM.

As to `O=C(N=C(Nc1ccc2ccccc2c1)Nc1ccc2[nH]ncc2c1)c1ccc(Br)cc1` [II-9], the EC50 was under 10 µM.

`O=C(N=C(Nc1cccc(Cl)c1)Nc1ccc2[nH]c(=O)oc2c1)c1ccc(C(F)(F)F)cc1` [Compound I-88]: the EC50 was under 10 µM.

`CC(C)(C)c1ccccc1NC(=NC(=O)c1cccc(Cl)c1)NCCc1c[nH]cn1` [III-6] returned an EC50 of under 10 µM.

Compound `O=C(N=C(Nc1ccc2ccccc2c1)Nc1ccc2[nH]ncc2c1)c1ccc(F)cc1` [II-12] came in with an EC50 of under 10 µM.

`O=C(N=C(Nc1ccc(Cl)cc1)Nc1ccc2[nH]ncc2c1)c1ccc(Cl)cc1` [II-22] had an EC50 of under 10 µM.

The compound `CC(C)(C)c1cccc(NC(=NC(=O)c2ccc(C(F)(F)F)c(F)c2)Nc2ccc3[nH]c(=O)oc3c2)c1` [Compound I-108] gave an EC50 of under 10 µM.

`O=C(N=C(Nc1cccc(C2CC2)c1)Nc1ccc2[nH]c(=O)oc2c1)c1cccc(C(F)(F)F)c1` [Compound I-109] displayed an EC50 of under 10 µM.

As for `N#Cc1cccc(C(=O)N=C(Nc2ccc(Cl)cc2)Nc2ccc3[nH]c(=O)oc3c2)c1` [Compound I-115], the half-maximal effective concentration (EC50) was under 10 µM.

As to `N#Cc1cccc(C(=O)N=C(Nc2ccc3[nH]c(=O)oc3c2)Nc2ccccc2Cl)c1` [Compound I-113], the EC50 was under 10 µM.

The compound `O=C(N=C(Nc1ccc(-c2ccccc2)cc1)Nc1ccc2[nH]c(=O)oc2c1)c1cccc(Cl)c1` [Compound I-31] came in with an EC50 of under 10 µM.

`N#Cc1cccc(C(=O)N=C(Nc2cccc(C3CC3)c2)Nc2ccc3oc(=O)[nH]c3c2)c1` [Compound I-136] had an EC50 of under 10 µM.

Compound `CC(C)(C)c1ccccc1NC(=NC(=O)c1cccc(F)c1)Nc1ccc2[nH]c(=O)oc2c1` [Compound I-96] came in with an EC50 of under 10 µM.

`O=C(N=C(Nc1ccc(C2CC2)cc1)Nc1ccc2[nH]c(=O)oc2c1)c1ccc(C(F)(F)F)cc1` [Compound I-137]: the EC50 is under 10 µM.

`O=C(N=C(Nc1ccc2ccccc2c1)Nc1ccc2[nH]c(=O)oc2c1)c1ccc(F)cc1` [Compound I-28] returned an EC50 of under 10 µM.

`CC(C)(C)c1ccccc1NC(=NC(=O)c1cccc(C(F)(F)F)c1)Nc1ccc2[nH]c(=O)oc2c1` [Compound I-95]: the EC50 was under 10 µM.
